Tested on: patients recruited within 30 days after a myocardial infarction
Assay: COLCOT time-to-treatment initiation (TTI) analysis
Format: in vivo, human
Details: for All Coronary Revascularizations, HR (95% CI) / All-cause death, HR (95% CI) / MI, HR (95% CI) / Primary composite endpoint, HR (95% CI) / Resuscitated cardiac arrest, HR (95% CI) / Secondary Composite Endpoint, HR (95% CI) / Stroke, HR (95% CI) / Urgent hospitalization for angina requiring coronary revascularization, HR (95% CI): colchicine vs. placebo
Method: (§1) The results of the COLCOT trial have been further analyzed to determine if time to treatment initiation (TTI) had any effect on the outcome of the treatment. Three different cutoffs for TTI were used in order to determine the association between early initiation of therapy and clinical outcomes. These cutoffs were determined based on the usual journey of patients with MI. The first 30-day post-MI timeline was divided into three independent periods of time, and analyzed as such: from day 0 to 3, referring to in-hospital management; from day 4 to 7, referring to early post-discharge period and from day 8 to 30, referring to late post-discharge period.
COLCOT was an international multicenter, randomized, double-blinded trial that randomly assigned patients to receive either low-dose colchicine (0.5 mg once daily) or placebo. The study protocol and main results have been published (see, Tardif et al., N Engl J Med 2019). […] Main exclusion criteria were severe heart failure, reduced left ventricular ejection fraction (<35%), recent stroke (<3 months), type 2 MI, recent (<3 years) or planned coronary artery bypass graft (CABG), history of cancer (<3 years), and inflammatory bowel disease or chronic diarrhea. All patients enrolled in the trial benefited from percutaneous coronary intervention whenever indicated and guidelines-directed management of CV disease prior to randomization (see. Tardif et al., N Engl J Med 2019).
The primary efficacy endpoint was a composite of CV death, resuscitated cardiac arrest, MI, stroke, or urgent hospitalization for angina requiring coronary revascularization. The secondary endpoints consisted of the components of the primary efficacy endpoint, all-cause death, and a composite of CV death, resuscitated cardiac arrest, MI, or stroke. Exploratory endpoints included all coronary revascularizations, including both elective and urgent coronary revascularizations.
as §1, with “Three” for “The results of the COLCOT trial have been further analyzed to determine if time to treatment initiation (TTI) had any effect on the outcome of the treatment. Three”
Both the TTI of less than 4 days and the TTI of less than 5 days was were calculated using a basic model (Table 4 and Table 6) as well as an adjusted model (Table 5 and Table 7) which is described below in the statistical analysis section. In all cases, the interaction p-value was not significant (p>0.05), meaning that the conclusion over Placebo vs. Colchicine group can be obtained directly from the respective p-values for HR. In other words, relationships within the placebo and colchicine groups with TTI are both linear/parallel and the interpretation is straightforward.
For the present TTI analysis, the data were centrally analyzed by an independent academic biostatistics center at the Montreal Health Innovations Coordinating Center. The analysis was conducted amongst patients who received at least one dose of the study medication (referred to as the safety population in the main protocol, FIG. 1). TTI was defined as the length of time in days between the index MI and the initiation of the study medication, and three specific cutoffs were analyzed ([…], days 4 to […]). Early initiation of therapy was defined as TTI≤3 days. Baseline characteristics were summarized using counts and percentages for categorical variables and mean±standard deviation (SD) for continuous variables. For each baseline characteristic, comparisons were made using ANOVA for continuous variables and Chi-Square test for categorical variables according to TTI strata. […]

[1] = TTI 0-3 days, listed as colchicine

Structure (SMILES): COc1cc2c(c(OC)c1OC)-c1ccc(OC)c(=O)cc1[C@@H](NC(C)=O)CC2 [Colchicine, colchicine]
- All Coronary Revascularizations, % of patients (TTI 0-3 days, N = 1193): 5.5%
- All Coronary Revascularizations, no. of patients (TTI 0-3 days, N = 1193): 33 no.
- All-cause death, % of patients (TTI 0-3 days, N = 1193): 1.0%
- All-cause death, no. of patients (TTI 0-3 days, N = 1193): 6 no.
- MI, % of patients (TTI 0-3 days, N = 1193): 2.8%
- MI, no. of patients (TTI 0-3 days, N = 1193): 17 no.
- Primary composite endpoint, % of patients (TTI 0-3 days, N = 1193): 4.3%
- Primary composite endpoint, no. of patients (TTI 0-3 days, N = 1193): 26 no.
- Resuscitated cardiac arrest, % of patients (TTI 0-3 days, N = 1193): 0.2%
- Resuscitated cardiac arrest, no. of patients (TTI 0-3 days, N = 1193): 1 no.
- Secondary Composite Endpoint, % of patients (TTI 0-3 days, N = 1193): 3.3%
- Stroke, % of patients (TTI 0-3 days, N = 1193): 0.2%
- Stroke, no. of patients (TTI 0-3 days, N = 1193): 1 no.
- Urgent hospitalization for angina requiring coronary revascularization, % of patients (TTI 0-3 days, N = 1193): 1%
- Urgent hospitalization for angina requiring coronary revascularization, no. of patients (TTI 0-3 days, N = 1193): 6 no.
- Secondary Composite Endpoint, no. of patients (TTI 0-3 days, N = 1193, CV death, resuscitated cardiac arrest, MI or stroke): 20 no.
- All Coronary Revascularizations, HR (95% CI) (TTI 0-3 days): 0.63 (0.40-0.97); p = 0.037
- All-cause death, HR (95% CI) (TTI 0-3 days): 1.03 (0.33-3.19); p = 0.962
- MI, HR (95% CI) (TTI 0-3 days): 0.58 (0.32-1.05); p = 0.071
- Primary composite endpoint, HR (95% CI) (TTI 0-3 days): 0.52 (0.32-0.84); p = 0.007
- Resuscitated cardiac arrest, HR (95% CI) (TTI 0-3 days): 0.33 (0.03-3.20); p = 0.340
- Secondary Composite Endpoint, HR (95% CI) (TTI 0-3 days): 0.55 (0.32-0.95); p = 0.031
- Stroke, HR (95% CI) (TTI 0-3 days): 0.21 (0.02-1.81); p = 0.156
- Urgent hospitalization for angina requiring coronary revascularization, HR (95% CI) (TTI 0-3 days): 0.35 (0.14-0.88); p = 0.026
- All Coronary Revascularizations, HR (95% CI) [1]: 0.63
- All-cause death, HR (95% CI) [1]: 1.03
- MI, HR (95% CI) [1]: 0.58
- Primary composite endpoint, HR (95% CI) [1]: 0.52
- Resuscitated cardiac arrest, HR (95% CI) [1]: 0.33
- Secondary Composite Endpoint, HR (95% CI) [1]: 0.55
- Stroke, HR (95% CI) [1]: 0.21
- Urgent hospitalization for angina requiring coronary revascularization, HR (95% CI) [1]: 0.35
- All Coronary Revascularizations, % of patients (TTI 4-7 days, N = 720): 6.9%
- All Coronary Revascularizations, no. of patients (TTI 4-7 days, N = 720): 25 no.
- All-cause death, % of patients (TTI 4-7 days, N = 720): 2.2%
- All-cause death, no. of patients (TTI 4-7 days, N = 720): 8 no.
- MI, % of patients (TTI 4-7 days, N = 720): 4.4%
- MI, no. of patients (TTI 4-7 days, N = 720): 16 no.
- Primary composite endpoint, % of patients (TTI 4-7 days, N = 720): 6.0%
- Primary composite endpoint, no. of patients (TTI 4-7 days, N = 720): 22 no.
- Resuscitated cardiac arrest, % of patients (TTI 4-7 days, N = 720): 0.5%
- Resuscitated cardiac arrest, no. of patients (TTI 4-7 days, N = 720): 2 no.
- Secondary Composite Endpoint, % of patients (TTI 4-7 days, N = 720): 4.9%
- Secondary Composite Endpoint, no. of patients (TTI 4-7 days, N = 720): 18 no.
- Stroke, % of patients (TTI 4-7 days, N = 720): 0.3%
- Stroke, no. of patients (TTI 4-7 days, N = 720): 1 no.
- Urgent hospitalization for angina requiring coronary revascularization, % of patients (TTI 4-7 days, N = 720): 1.1%
- Urgent hospitalization for angina requiring coronary revascularization, no. of patients (TTI 4-7 days, N = 720): 4 no.
- All Coronary Revascularizations, HR (95% CI) (TTI 4-7 days): 1.41 (0.76-2.61); p = 0.275
- All-cause death, HR (95% CI) (TTI 4-7 days): 1.03 (0.37-2.84); p = 0.957
- MI, HR (95% CI) (TTI 4-7 days): 1.67 (0.74-3.78); p = 0.218
- Primary composite endpoint, HR (95% CI) (TTI 4-7 days): 0.96 (0.53-1.75); p = 0.896
- Resuscitated cardiac arrest, HR (95% CI) (TTI 4-7 days): 1.90 (0.17-20.95); p = 0.600
